For series [1], the system named is naïve wild-type mice. Put plainly: 4EPS sufficiency experiment: open field exploration. It counts as in vivo. The procedure:
The open field test is widely used to measure anxiety-like and locomotor behavior in rodents. Mice were placed in 50×50 cm white Plexiglas boxes for 10 minutes. An overhead video camera recorded the session, and Ethovision software (Noldus) was used to analyze the distance traveled, and the number of entries and duration of time spent in the center arena (central 17 cm square).
(§1) Wildtype mice were injected i.p. with saline or 30 mg/kg 4EPS potassium salt daily from 3 to 6 weeks of age. A dose-response curve was generated by measuring serum 4EPS levels at various times after i.p. injection of 30 mg/kg 4EPS (FIG. 15C). Mice were behaviorally tested as described above from 6 to 9 weeks of age.

In series [2] the test system is naïve wild-type mice. Description: 4EPS sufficiency experiment: marble burying. The class given is in vivo. As to conditions: 4EPS-treated versus saline-treated mice. The procedure: Marble burying is an elicited repetitive behavior in rodents analogous to those observed in autistic individuals (Silverman et al., 2010b). This test was conducted and analyzed according to methods described in Thomas et al., 2009 and Malkova et al., 2012. Mice were habituated for 10 minutes to a novel testing cage containing a 4 cm layer of chipped cedar wood bedding and then transferred to a new housing cage. 18 glass marbles (15 mm diameter) were aligned equidistantly 6×3 in the testing cage. Mice were returned to the testing cage and the number of marbles buried in 10 minutes was recorded.
as §1

For series [3], the system named is naïve wild-type mice. Description: 4EPS sufficiency experiment: pre-pulse inhibition and startle. The class given is in vivo. As to conditions: 30 mg/kg i.p. daily. Here is the method: PPI tests are used as a measure of sensorimotor gating and were conducted and analyzed according to the procedure described in Geyer and Swerdlow, 2001 and Smith et al., 2007. Briefly, mice were acclimated to the testing chambers of the SR-LAB startle response system (San Diego Instruments) for 5 minutes, presented with six 120 db pulses of white noise (startle stimulus) and then subjected to 14 randomized blocks of either no startle, startle stimulus only, 5 db prepulse with startle or 15 db prepulse with startle. The startle response was recorded by a piezo-electric sensor, and the percent PPI is defined as: [((startle stimulus only—5 or 15 db prepulse with startle)/startle stimulus only)*100].
as §1

Series [4] can be described thus: Serum 4EPS after i.p. injection. The class given is in vivo. As to conditions: single i.p. injection of 30 mg/kg potassium 4EPS, adult wild-type mice. Here is the method: Authentic 4EPS and serum samples were analyzed by LC/MS using an Agilent […] HPLC system equipped with a photodiode array detector and interfaced to a model G1946C single quadrupole […] mass spectrometer. HPLC separations were obtained at 25° C. using an Agilent Zorbax XDB-C18 column (4.6 mm×50 mm×5 um particle size). The 4EPS ion was detected using selected ion monitoring for ions of m/z 200.9 and dwell time of 580 ms/ion, with the electrospray capillary set at 3 kV. […] For quantification of 4EPS in mouse sera, a dose-response curve was constructed by plotting the total ion count peak area for known concentrations of authentic potassium 4EPS against the analyte concentration (R^2=0.9998; FIG. 15B). Mouse serum samples were diluted four-fold with acetonitrile and centrifuged at 10,000 g at 4° C. for 3 minutes. 10 ul of supernatant was injected directly into the HPLC system.
as §1

A short description of series [5]: 4EPS sufficiency experiment: body weight. The class given is in vivo. Conditions: 4EPS- versus control-treated mice. Here is the method:
as §1

Series [6] deals with naïve wild-type mice. Description: 4EPS sufficiency experiment: ultrasonic vocalizations. The class given is in vivo. Conditions: 4EPS-treated versus saline-treated mice. The procedure:
Male mice produce USVs in response to female mice as an important form of communication (Portfors, 2007). Adult male USV production in response to novel female exposure was measured according to methods described in Grimsley et al., 2011; Scattoni et al., 2011; and Silverman et al., 2010a. Adult males were single-housed one week before testing and exposed for 20 minutes to an unfamiliar adult female mouse each day starting four days prior to testing in order to provide a standardized history of sexual experience and to adjust for differences in social dominance. On testing day, mice were habituated to a novel cage for 10 minutes before exposure to a novel age-matched female. USVs were recorded for 3 minutes using the UltraSoundGate microphone and audio system (Avisoft Bioacoustics). Recordings were analyzed using Avisoft's SASLab Pro software after fast Fourier transformation at 512 FFT-length and detection by a threshold-based algorithm with 5 ms hold time. Data presented reflect duration and number of calls produced in the 3 minute session.
as §1

Series [7] concerns CNTNAP2 knockout mice. Conditions: cited from earlier work.
For series [8], the system named is ASD individuals. As to conditions: cited from earlier work.
Series [9] concerns claudin 8 and claudin 15. Description: In vitro colon culture with IL-6, claudin expression. As to conditions: in vitro colon organ cultures. The class given is cell-based, mice. Here is the method: (§2) For in vivo assays, adult mice were gavaged with 5 ug carrier-free recombinant mouse IL-6 (eBioscience) in 1.5% sodium bicarbonate. At 4 hours post-gavage, 1 cm regions of distal, medial and proximal colon were dissected, washed in HBSS and processed for qRT-PCR, as described above. For in vitro assays, adult mice were sacrificed and 1 cm regions of distal, medial and proximal colon were dissected, washed and bisected for colon culture with 0-80 ng/ml IL-6 in complete RPMI media. After 4 hours of culture, colon pieces were harvested and processed for qRT-PCR, as described above.

For series [10], the system named is claudin 8 and claudin 15. Put plainly: IL-6 oral gavage, colon claudin expression. Also noted: species or system mice. As to conditions: in vivo. Here is the method: as §2
Where [11] appears, read: 30 mg/kg i.p. daily, relative to vehicle-treated controls.

On to `CCc1ccc(OS(=O)(=O)[O-])cc1.[K+]` [4-ethylphenylsulfate], for which the anxiety-like behavior result in series [1] (30 mg/kg i.p. daily from 3 to 6 weeks of age) was “sufficient to induce anxiety-like behavior”. Moreover, in series [1] (setting [11]), the “distance traveled in the open field” value is “comparable distances” and the “time in the center arena” value was “less time”. Also, the “number of entries into the center of the field” value in series [1] (30 mg/kg i.p. daily, versus vehicle-treated mice) was “no difference”. For the same molecule, the marble burying entry in [2] was “no significant differences”. Moreover, the PPI entry in series [3] (5 db or 15 db pre-pulse) is “no significant alterations”. In addition, the “intensity of startle in response to the unconditioned primary stimulus” value in [3] (120 db pulse) was “increased intensity of startle”. The “serum 4EPS” value in series [4] is recorded as “Time-dependent increases”. In series [5], the weight entry is on record as “no difference”. Also, in series [6], the USV behavior entry is recorded as “no significant differences”.
With `Cc1nc2n(c(=O)c1CCN1CCC(c3noc4cc(F)ccc34)CC1)CCCC2` [risperidone], the social behavior result in series [7] and in series [8] was “inability to improve social behavior” each time.

B1: recombinant IL-6: carrier-free recombinant mouse IL-6 (eBioscience) (protein, UniProt P08505 25-211, looked up)
Interleukin-6: FPTSQVRRGDFTEDTTPNRPVYTTSQVGGLITHVLWEIVEMRKELCNGNSDCMNNDDALAENNLKLPEIQRNDGCYQTGYNQEICLLKISSGLLEYHSYLEYMKNNLKDNKKDKARVLQRDTETLIHIFNQEVKDLHKIVLPTPISNALLTDKLESQKEWLRTKTIQFILKSLEEFLKVTLRSTRQT
In the case of B1, the “colon levels of claudin 8 and claudin 15” value in series [9] and in [10] was “can modulate” each time.

The values above are taken from patent publication US11052151B2, “Diagnosis and treatment of autism spectrum disorder” (California Institute of Technology, priority 2012, dated 2021).
